Columns and labels:
[1] = same polydimethylsiloxane devices; stated as known; cited from earlier work
[2] = Selective transfer of molecules through ultrahigh Dk lens material; format: physicochemical; settings: ultrahigh Dk lens material selective to molecules by size
From the text: The inventors discovered an ultrahigh Dk lens material that is selective to the transfer of molecules based on their size. […] The material has value in reverse osmosis systems because of its selective permeability. Its transmissibility may be regulated by the thickness profile of the ophthalmic device or may be further regulated by the addition of surface modification or fillers within the substrate of the material that produce selective permeability related to polar surface area or the molecular weight of a permeant.

[3] = Retention of permeants under polydimethylsiloxane devices during wearing; settings: devices 14.3 mm overall diameter, thickness greater than 0.400 mm; not found in device substrate after removal or in pre device tear film during wearing

transfer through the material [2]	SMILES	transmissibility through the devices [1]	retention of permeant behind the device (permeation through device) [3]
	CCO [ethanol]	high transmissibility	
will transfer	O=O [oxygen]	high transmissibility	
	O=C([O-])c1ccccc1-c1c2ccc(=O)cc-2oc2cc([O-])ccc12.[Na+].[Na+] [sodium fluorescein]		retained in the post lens tear space
will transfer	O [water vapor]	high transmissibility	

SMILES	transfer through the material [2]	transmissibility through the devices [1]	retention of permeant behind the device (permeation through device) [3]
[Cl-].[Na+] [sodium chloride]	will not transfer		

— US20250255771A1, “OPHTHALMIC DEVICES FOR MANAGEMENT OF WATER VAPOR TRANSMISSIBILITY, DELIVERY OF PHARMACEUTICAL AGENTS, AND NON-SURGICAL CORNEAL RESHAPING” (OCULAR SURFACE INNOVATIONS INC., priority 2024, published 2025)
